From ChEMBL document CHEMBL1139115, “Thyroid receptor ligands. Part 7: Indirect antagonists of the thyroid hormone receptor with improved affinity” (Bioorg Med Chem Lett, 2007)

Tests used:
[1] = target: T1, Thyroid hormone receptor alpha (Homo sapiens, UniProt P10827); assay: Binding affinity at human TRalpha1
T1 sequence (P10827 whole entry): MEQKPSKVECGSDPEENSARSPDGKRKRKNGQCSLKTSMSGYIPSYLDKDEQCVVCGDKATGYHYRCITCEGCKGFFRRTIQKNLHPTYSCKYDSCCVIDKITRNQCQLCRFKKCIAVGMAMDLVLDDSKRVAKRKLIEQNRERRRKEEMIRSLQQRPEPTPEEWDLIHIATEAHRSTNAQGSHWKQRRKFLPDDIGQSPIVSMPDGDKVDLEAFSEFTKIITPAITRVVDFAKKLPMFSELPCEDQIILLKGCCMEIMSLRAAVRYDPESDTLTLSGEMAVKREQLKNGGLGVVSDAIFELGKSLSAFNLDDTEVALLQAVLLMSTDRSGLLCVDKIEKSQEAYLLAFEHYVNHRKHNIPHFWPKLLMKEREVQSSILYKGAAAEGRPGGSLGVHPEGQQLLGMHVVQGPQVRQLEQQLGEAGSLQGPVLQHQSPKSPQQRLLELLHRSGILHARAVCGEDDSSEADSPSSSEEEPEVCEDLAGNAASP

[2] = target: T1, Thyroid hormone receptor alpha
Description: Agonist activity at human TR-alpha-1 expressed in CHO cells assessed as TRAF-alpha-1-driven gene transactivation by alkaline phosphatase reporter gene assay

[3] = target: T2, Thyroid hormone receptor beta (Homo sapiens, UniProt P10828); assay: Binding affinity at human TRbeta1
T2 sequence (P10828 whole entry): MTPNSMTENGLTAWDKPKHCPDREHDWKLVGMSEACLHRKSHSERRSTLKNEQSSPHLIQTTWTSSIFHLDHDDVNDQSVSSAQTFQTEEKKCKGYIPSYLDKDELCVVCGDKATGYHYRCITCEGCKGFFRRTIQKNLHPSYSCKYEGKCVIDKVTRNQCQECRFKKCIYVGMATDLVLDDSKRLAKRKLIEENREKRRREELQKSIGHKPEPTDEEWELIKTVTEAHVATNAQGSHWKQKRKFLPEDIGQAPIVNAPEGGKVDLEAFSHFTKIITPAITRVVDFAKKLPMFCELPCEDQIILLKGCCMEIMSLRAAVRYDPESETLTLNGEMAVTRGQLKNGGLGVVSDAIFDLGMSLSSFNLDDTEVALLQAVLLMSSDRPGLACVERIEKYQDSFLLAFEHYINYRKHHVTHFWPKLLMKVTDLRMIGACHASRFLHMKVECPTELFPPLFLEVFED

[4] = target: T2, Thyroid hormone receptor beta; assay: Agonist activity at human TR-beta-1 expressed in CHO cells assessed as TRAF-beta-1-driven gene transactivation by alkaline phosphatase reporter gene assay; format: functional, cell-based
Homo sapiens = species on record: Homo sapiens; assay: Selectivity for human TR-alpha-1 to human TRbeta1
Androgen receptor = target: T3, Androgen receptor (Homo sapiens, UniProt P10275); assay: Binding affinity at AR
T3 sequence (P10275 whole entry): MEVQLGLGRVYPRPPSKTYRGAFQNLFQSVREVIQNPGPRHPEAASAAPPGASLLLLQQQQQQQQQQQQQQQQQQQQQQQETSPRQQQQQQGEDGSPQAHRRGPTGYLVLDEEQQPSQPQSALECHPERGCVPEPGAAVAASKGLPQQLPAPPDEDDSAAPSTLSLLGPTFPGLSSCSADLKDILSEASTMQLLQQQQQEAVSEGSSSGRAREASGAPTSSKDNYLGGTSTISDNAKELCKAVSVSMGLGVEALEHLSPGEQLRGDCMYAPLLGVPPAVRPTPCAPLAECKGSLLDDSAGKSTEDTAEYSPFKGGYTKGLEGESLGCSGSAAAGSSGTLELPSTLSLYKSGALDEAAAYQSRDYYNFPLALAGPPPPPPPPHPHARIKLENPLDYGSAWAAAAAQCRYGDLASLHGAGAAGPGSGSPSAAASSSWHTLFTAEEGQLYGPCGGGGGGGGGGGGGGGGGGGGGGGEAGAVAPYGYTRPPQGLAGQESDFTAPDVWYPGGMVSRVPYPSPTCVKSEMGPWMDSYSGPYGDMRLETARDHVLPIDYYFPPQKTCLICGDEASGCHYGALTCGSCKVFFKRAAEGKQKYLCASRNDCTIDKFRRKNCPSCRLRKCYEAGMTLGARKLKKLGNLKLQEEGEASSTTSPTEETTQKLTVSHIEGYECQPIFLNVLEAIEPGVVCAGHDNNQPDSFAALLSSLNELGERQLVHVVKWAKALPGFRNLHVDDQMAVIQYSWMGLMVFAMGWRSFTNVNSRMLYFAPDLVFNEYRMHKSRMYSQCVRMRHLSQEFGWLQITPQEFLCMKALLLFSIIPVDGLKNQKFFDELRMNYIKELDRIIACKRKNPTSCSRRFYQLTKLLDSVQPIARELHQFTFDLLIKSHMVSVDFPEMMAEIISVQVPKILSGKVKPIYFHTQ

Progesterone receptor = target: T4, Progesterone receptor (Homo sapiens, UniProt P06401); assay: Binding affinity at PR
T4 sequence (P06401 whole entry): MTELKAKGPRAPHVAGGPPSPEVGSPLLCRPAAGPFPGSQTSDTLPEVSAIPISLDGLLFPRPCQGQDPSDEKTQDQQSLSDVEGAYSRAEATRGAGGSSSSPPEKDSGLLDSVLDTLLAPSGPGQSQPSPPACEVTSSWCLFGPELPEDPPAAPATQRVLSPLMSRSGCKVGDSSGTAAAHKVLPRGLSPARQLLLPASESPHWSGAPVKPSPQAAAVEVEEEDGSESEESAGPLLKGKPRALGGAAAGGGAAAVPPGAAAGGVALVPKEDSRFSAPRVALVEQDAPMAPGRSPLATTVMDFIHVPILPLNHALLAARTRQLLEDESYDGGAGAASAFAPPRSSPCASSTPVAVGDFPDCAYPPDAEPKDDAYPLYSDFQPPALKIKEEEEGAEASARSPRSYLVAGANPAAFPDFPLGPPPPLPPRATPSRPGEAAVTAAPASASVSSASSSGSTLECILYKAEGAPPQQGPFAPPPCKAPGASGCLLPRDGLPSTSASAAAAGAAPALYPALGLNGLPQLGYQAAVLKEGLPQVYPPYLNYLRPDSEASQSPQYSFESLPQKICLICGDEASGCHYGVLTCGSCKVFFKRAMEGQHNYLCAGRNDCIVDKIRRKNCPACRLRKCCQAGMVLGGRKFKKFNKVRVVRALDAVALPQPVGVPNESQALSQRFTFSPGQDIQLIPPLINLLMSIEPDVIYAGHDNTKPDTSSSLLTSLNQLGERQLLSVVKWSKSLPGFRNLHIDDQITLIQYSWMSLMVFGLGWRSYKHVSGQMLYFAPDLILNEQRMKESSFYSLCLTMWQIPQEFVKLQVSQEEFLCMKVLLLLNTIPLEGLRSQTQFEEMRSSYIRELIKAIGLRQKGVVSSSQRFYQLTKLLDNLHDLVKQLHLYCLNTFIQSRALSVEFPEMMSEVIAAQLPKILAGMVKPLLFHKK

[5] = target: T2, Thyroid hormone receptor beta
Description: Antagonist activity at human TR-beta-1 expressed in CHO cells assessed as TRAF-beta-1-driven gene transactivation by alkaline phosphatase reporter gene assay

Estrogen receptor = target: T5, Estrogen receptor (Homo sapiens, UniProt P03372); assay: Binding affinity at ERalpha
T5 sequence (P03372 whole entry): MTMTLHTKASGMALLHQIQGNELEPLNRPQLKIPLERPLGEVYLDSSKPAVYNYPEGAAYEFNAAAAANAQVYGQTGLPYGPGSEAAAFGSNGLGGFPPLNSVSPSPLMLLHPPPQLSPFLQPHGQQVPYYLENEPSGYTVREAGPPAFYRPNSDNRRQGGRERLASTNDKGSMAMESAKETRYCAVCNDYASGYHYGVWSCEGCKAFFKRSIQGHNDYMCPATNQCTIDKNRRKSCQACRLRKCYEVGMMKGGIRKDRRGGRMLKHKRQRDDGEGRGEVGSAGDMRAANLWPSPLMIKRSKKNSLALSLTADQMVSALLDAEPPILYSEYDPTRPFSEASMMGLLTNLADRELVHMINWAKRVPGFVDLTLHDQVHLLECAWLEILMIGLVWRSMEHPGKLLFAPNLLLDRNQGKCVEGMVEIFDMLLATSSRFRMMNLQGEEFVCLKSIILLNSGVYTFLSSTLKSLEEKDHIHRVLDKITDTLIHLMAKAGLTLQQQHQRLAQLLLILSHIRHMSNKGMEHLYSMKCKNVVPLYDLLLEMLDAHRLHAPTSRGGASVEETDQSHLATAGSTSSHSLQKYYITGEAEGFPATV

[6] = target: T1, Thyroid hormone receptor alpha; assay: Displacement of L-T3 from human TR-alpha-1 expressed in CHOK1 cells assessed as TRAF-alpha-1-driven gene transactivation by alkaline phosphatase reporter gene assay; format: cell-based, CHO-K1
[7] = target: T6, Mineralocorticoid receptor (Homo sapiens, UniProt P08235); assay: Binding affinity at MR
T6 sequence (P08235 whole entry): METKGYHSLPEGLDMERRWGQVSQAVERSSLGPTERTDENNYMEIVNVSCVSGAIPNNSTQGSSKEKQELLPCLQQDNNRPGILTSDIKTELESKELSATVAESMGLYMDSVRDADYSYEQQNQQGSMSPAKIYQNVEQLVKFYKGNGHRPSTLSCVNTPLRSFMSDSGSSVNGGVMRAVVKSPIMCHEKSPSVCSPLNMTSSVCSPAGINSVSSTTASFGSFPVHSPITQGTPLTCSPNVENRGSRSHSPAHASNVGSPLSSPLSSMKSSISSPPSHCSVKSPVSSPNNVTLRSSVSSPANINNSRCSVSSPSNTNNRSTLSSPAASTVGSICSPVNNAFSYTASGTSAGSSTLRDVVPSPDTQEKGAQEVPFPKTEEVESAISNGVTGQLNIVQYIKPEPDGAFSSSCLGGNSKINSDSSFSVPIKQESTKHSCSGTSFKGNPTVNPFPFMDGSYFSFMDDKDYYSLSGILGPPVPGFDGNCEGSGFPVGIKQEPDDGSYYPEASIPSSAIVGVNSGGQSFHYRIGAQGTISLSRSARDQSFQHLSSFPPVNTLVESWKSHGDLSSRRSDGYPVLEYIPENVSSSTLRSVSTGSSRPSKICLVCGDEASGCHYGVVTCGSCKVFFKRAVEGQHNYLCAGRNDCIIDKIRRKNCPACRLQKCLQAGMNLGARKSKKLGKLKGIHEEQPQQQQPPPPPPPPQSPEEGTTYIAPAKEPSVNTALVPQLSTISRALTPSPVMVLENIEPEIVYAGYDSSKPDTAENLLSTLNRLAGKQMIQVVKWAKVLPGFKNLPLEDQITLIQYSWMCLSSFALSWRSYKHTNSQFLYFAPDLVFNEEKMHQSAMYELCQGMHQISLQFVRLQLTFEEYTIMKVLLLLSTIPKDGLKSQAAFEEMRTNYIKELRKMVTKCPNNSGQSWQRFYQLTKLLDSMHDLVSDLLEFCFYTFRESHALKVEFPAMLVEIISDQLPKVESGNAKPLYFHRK

Glucocorticoid receptor = target: T7, Glucocorticoid receptor (Homo sapiens, UniProt P04150); assay: Binding affinity at GR
T7 sequence (P04150 whole entry): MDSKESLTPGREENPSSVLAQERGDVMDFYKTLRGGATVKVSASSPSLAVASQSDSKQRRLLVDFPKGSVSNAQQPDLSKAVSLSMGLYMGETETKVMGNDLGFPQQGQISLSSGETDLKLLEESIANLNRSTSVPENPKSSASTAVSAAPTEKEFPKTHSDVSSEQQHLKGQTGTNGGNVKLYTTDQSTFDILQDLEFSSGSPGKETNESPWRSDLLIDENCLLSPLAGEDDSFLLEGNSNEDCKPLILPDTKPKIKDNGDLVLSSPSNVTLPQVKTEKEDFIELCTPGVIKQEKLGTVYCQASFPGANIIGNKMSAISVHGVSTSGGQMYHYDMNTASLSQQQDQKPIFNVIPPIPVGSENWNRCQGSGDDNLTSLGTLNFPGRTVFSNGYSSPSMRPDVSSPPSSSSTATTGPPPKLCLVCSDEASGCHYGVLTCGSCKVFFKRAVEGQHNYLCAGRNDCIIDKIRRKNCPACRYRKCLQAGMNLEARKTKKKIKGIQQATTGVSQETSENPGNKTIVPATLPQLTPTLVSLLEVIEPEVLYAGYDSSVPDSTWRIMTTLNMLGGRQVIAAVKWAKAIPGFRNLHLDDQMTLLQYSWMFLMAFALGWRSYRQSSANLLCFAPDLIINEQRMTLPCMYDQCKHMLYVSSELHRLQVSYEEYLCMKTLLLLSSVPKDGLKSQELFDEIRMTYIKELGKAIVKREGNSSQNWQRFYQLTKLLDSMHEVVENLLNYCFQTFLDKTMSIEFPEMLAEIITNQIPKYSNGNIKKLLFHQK

[8] = target: T8, Thyroid hormone receptor alpha (Homo sapiens) (UniProt P10827); assay: (§1) Antagonist activity at human TR-alpha-1 expressed in CHO cells assessed as TRAF-alpha-1-driven gene transactivation by alkaline phosphatase reporter gene assay; format: functional, cell-based; design: scale not given: the % may be the effect or the level left
T8 sequence (whole entry): T1 sequence (P10827 whole entry)

[9] = target: T1, Thyroid hormone receptor alpha; assay: as §1; format: functional, cell-based

Row | SMILES | IC50 [1] | EC50 [2] | IC50 [3] | EC50 [4] | Ratio IC50 (Homo sapiens) | IC50 (Androgen receptor) | IC50 (Progesterone receptor) | IC50 [5] | IC50 (Estrogen receptor) | IC50 [6] | IC50 [7] | IC50 (Glucocorticoid receptor) | Activity [8] | IC50 [9]
1 | CCNc1cccc(COc2c(Br)cc(CCC(=O)O)cc2Br)c1 | 78 nM | 23 nM | 23 nM | 49 nM | 3.4 |  |  |  |  |  |  |  |  | 
2 | Cc1ccc(COc2c(Br)cc(CCC(=O)O)cc2Br)cc1 | 600 nM |  | 360 nM |  | 0.98 |  |  |  |  |  |  |  |  | 
3 | O=C(O)CCc1cc(Br)c(OCc2ccccc2)c(Br)c1 | 680 nM |  | 230 nM |  | 1.7 |  |  |  |  |  |  |  |  | 
4 | O=C(O)CCc1cc(Br)c(OCc2cccc(Br)c2)c(Br)c1 | 99 nM |  | 60 nM |  | 0.97 | 7700 nM | 2500 nM | 230 nM | 29000 nM | 90 nM | 8700 nM | 14000 nM | 80% | 380 nM
5 | Cc1cccc(COc2c(Br)cc(CCC(=O)O)cc2Br)c1 | 360 nM |  | 120 nM |  | 1.8 |  |  |  |  |  |  |  |  | 
